Columns and labels:
Wnk1, Wnk2, Wnk3 = assay: KiNativ, OCI cells live cell; type: cell-based, human; settings: labeling site Lys2, peptide DLKCDNIFITGPTGSVK
CHED = CHED (Homo sapiens, UniProt Q14004); assay: KiNativ, OCI cells live cell; type: cell-based; settings: labeling site Lys2, peptide DIKCSNILLNNR
NEK6, NEK7 = assay: KiNativ, OCI cells live cell; type: cell-based, human; settings: labeling site Lys2, peptide DIKPANVFITATGVVK
MAP2K4 = target: T1, MAP2K4 (Homo sapiens, UniProt P45985); assay: KiNativ, OCI cells live cell; type: cell-based; settings: 2 h
T1 sequence (P45985 1-399): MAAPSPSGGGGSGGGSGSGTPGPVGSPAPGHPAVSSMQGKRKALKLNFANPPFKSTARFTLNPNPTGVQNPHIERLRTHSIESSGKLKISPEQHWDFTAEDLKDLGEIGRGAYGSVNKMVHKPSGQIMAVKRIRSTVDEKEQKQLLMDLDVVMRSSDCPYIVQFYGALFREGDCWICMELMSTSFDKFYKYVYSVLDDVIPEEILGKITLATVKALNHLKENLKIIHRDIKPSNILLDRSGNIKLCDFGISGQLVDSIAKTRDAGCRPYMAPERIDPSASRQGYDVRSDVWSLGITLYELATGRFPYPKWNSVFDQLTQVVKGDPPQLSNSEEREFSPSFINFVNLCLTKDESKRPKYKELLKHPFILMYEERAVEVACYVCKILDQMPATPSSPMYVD

DGKA = DGKA (Homo sapiens, UniProt P23743); assay: KiNativ, OCI cells live cell; type: cell-based; settings: 2 h, labeling site ATP, peptide […]
DGKA, sequence (P23743 whole entry): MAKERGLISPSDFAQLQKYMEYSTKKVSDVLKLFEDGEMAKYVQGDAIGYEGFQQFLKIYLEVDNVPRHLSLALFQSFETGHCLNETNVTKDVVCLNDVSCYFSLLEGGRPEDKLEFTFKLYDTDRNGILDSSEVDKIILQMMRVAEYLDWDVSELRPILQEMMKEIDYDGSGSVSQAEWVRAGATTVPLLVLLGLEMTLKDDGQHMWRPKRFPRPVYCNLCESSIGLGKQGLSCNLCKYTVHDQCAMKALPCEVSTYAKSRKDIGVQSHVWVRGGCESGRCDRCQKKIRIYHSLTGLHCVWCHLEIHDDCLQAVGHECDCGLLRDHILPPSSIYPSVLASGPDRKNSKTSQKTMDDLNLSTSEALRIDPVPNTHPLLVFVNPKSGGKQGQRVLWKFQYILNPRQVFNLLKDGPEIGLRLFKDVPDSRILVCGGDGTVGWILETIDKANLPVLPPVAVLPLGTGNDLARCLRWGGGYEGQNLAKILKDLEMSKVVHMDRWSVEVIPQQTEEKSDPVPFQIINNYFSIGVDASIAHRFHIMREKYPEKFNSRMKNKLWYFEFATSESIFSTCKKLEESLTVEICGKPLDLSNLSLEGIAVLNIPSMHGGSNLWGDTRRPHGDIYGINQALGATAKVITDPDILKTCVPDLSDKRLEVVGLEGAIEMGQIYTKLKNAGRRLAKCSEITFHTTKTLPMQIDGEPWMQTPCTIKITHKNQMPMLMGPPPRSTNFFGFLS

IRAK1 = IRAK1 (Homo sapiens, UniProt P51617); assay: KiNativ, OCI cells live cell; type: cell-based; settings: 2 h, labeling site Lys2, peptide […]
[1] = tested on: native kinases in MOLM13 cells; assay: KiNativ in situ kinase profiling, MOLM13 cells; type: cell-based, human; settings: 100 nM, compared with DMSO
Protocol: Samples were analyzed by KiNativ in situ kinase profiling by ActivX Biosciences.

MOLM13-Luc+ cells = assay: MOLM13-Luc+ xenograft model; type: in vivo, NSG mice; settings: 3 weeks
Protocol: Engraftment and growth of leukemic cells were monitored by noninvasive bioluminescence imaging in cell line xenograft models, as previously done ([47]). Details on the cell engraftment and dosing in mouse models are provided in the Supplemental Methods.
Cell viability of primary samples
HS5-GFP human bone marrow stromal cells were plated and cultured for 72 hours to near confluence.
MOLM13 cells were then seeded onto HS5-GFP cells to establish a co-culture. Twenty-four hours later, cells were treated with increasing concentrations of drug for an additional 72 hours. MOLM13 and HS5-GFP cells were then separated and MTT assay s were performed for cell viability assessment of each cell population.
For murine or human primary AML cells, 100,000 cells/well were plated in a 96-well plate and treated with increasing concentrations of drug. Cell viability, via trypan blue, was measured every 24 hours. If the viability fell below 50% or at 72 hours of treatment, whichever came earlier, cell viability of each plate was measured via CellTiter-Glo. Primary human AML cells were obtained from the OSUCCC Leukemia Tissue Bank Shared […]
Primary AML samples were analyzed by targeted gene sequencing of 80 genes, as previously described (1). Samples were pooled and analyzed on a MiSeq system using the Illuminia MiSeq Reagent Kit v3. […]
Luc+ or MOLM13-Res -Luc+ cells, 0.5 million OCI-AML3 -Luc+ cells, and 10,000 Ba/F3-FLT3-ITD/F691L-GFP+ cells. Weekly tumor engraftment of cell line xenograft models were assessed after injection of D-luciferin (150mg/kg i.p.; Gold Biotechnology, Inc, St. Louis, MO) on Xenogen IVIS-200 imaging system (Perkin Elmer, Waltham, MA) or GFP monitoring by peripheral blood via BD LSR II flow cytometer (BD Biosciences, San Jose, CA). Signal intensity was analyzed using Living Image Software (PerkinElmer) or FlowJo v10.0.08 software (FlowJo, LLC, Ashland, OR). […]
At indicated time points, cells were collected and washed with PBS. CD11b expression was measured using anti-CD11b -APC antibody (BioLegend, San Diego, CA). […]

FGFR1 = target: T2, FGFR1 (Homo sapiens, UniProt P11362); assay: KdELECT binding assay
T2 construct: purchased Eurofins DiscoverX

PIK3C3 = PIK3C3 (Homo sapiens, UniProt Q8NEB9); assay: KiNativ, OCI cells live cell; type: cell-based; settings: 2 h, labeling site ATP
PIK3C3, sequence (Q8NEB9 whole entry): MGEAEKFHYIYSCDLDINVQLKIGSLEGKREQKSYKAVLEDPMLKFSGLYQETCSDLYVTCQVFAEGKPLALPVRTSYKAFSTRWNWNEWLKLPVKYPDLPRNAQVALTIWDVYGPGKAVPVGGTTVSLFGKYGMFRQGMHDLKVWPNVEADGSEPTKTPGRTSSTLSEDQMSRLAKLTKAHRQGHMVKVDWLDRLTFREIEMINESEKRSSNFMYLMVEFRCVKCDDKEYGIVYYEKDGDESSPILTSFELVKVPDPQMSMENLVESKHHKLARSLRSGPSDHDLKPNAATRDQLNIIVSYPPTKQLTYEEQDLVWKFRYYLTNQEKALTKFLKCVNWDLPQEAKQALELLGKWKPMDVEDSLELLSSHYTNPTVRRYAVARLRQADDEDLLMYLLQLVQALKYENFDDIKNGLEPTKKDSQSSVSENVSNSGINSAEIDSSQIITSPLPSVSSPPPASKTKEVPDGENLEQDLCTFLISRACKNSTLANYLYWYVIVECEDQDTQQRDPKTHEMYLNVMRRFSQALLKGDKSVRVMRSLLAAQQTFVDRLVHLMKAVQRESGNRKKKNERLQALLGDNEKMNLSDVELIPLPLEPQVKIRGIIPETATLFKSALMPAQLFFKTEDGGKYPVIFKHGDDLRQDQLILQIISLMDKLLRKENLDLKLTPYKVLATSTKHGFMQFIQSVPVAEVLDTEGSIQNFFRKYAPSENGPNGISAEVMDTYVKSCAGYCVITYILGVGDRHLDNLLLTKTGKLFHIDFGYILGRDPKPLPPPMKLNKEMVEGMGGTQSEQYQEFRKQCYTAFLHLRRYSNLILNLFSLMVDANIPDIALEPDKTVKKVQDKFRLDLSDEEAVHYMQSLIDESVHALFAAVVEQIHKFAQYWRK

CDK9 = CDK9 (Homo sapiens, UniProt P50750); assay: KiNativ, OCI cells live cell; type: cell-based; settings: 2 h
CDK9, sequence (P50750 whole entry): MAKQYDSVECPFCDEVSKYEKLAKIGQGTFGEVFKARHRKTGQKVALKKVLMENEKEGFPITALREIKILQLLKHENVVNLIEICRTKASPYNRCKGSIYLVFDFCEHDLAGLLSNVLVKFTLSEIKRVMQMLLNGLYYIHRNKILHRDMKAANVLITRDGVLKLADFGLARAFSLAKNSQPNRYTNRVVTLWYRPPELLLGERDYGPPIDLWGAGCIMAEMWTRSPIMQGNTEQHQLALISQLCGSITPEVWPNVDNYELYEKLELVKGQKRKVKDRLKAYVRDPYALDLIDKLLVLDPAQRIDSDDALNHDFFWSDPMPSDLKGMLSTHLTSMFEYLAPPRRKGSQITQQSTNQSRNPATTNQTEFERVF
CDK9, sequence (O60563 whole entry partner): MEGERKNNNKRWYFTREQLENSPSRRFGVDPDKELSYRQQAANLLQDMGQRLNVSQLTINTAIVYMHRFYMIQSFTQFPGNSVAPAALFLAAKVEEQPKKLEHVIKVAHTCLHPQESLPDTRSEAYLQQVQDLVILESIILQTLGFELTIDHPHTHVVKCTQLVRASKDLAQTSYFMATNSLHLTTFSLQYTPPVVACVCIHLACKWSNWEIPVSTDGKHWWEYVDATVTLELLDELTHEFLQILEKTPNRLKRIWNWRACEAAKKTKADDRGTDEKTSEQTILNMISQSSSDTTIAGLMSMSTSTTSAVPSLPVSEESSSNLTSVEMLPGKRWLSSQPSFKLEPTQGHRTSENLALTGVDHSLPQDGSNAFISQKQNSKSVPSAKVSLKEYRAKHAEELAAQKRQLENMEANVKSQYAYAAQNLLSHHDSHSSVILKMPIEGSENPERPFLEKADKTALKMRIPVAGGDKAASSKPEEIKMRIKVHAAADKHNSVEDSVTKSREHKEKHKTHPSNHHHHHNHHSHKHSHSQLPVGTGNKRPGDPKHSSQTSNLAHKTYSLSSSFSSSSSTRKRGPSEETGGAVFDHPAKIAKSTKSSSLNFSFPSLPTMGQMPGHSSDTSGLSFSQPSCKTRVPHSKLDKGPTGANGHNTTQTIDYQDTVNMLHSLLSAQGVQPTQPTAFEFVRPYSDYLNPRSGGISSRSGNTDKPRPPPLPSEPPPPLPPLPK

CHED, sequence (Q14004 whole entry): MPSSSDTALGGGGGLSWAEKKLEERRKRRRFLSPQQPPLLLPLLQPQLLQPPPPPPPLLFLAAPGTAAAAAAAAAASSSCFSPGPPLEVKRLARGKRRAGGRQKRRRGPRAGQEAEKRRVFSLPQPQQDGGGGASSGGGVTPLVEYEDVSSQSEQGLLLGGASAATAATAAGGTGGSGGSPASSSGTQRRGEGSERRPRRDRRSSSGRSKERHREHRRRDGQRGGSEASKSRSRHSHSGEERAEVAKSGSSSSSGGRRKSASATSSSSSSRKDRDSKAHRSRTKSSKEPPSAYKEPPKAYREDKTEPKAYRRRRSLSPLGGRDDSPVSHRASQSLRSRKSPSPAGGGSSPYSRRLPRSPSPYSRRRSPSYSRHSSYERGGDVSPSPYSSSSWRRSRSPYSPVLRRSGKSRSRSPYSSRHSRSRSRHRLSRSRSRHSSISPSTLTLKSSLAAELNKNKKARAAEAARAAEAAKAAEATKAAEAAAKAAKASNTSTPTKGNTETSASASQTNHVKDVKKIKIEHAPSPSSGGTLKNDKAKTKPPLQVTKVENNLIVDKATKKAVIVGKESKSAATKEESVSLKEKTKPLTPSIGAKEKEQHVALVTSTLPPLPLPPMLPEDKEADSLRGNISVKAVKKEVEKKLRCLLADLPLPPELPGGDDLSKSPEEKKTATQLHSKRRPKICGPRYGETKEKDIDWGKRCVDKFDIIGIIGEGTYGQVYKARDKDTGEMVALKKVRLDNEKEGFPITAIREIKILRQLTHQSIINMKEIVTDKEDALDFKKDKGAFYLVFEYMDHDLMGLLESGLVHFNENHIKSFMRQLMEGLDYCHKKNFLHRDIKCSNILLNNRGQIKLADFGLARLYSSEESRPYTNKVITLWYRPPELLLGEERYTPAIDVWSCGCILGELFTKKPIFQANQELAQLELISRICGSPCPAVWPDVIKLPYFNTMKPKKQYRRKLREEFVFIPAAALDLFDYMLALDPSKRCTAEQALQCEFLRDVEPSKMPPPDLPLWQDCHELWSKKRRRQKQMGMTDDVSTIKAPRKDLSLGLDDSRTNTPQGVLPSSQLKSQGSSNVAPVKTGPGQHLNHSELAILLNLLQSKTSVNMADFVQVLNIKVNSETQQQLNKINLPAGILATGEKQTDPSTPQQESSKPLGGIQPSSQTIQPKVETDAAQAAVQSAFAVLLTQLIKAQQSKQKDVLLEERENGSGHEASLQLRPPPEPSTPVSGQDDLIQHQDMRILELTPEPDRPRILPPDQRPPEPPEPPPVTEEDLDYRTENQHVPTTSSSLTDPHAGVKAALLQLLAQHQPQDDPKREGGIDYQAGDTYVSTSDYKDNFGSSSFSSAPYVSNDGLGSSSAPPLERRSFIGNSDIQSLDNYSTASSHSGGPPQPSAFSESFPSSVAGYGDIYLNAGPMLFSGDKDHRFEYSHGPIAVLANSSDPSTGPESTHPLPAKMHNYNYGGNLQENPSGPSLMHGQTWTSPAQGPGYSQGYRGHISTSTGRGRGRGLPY
CHED, sequence (O75909 whole entry partner): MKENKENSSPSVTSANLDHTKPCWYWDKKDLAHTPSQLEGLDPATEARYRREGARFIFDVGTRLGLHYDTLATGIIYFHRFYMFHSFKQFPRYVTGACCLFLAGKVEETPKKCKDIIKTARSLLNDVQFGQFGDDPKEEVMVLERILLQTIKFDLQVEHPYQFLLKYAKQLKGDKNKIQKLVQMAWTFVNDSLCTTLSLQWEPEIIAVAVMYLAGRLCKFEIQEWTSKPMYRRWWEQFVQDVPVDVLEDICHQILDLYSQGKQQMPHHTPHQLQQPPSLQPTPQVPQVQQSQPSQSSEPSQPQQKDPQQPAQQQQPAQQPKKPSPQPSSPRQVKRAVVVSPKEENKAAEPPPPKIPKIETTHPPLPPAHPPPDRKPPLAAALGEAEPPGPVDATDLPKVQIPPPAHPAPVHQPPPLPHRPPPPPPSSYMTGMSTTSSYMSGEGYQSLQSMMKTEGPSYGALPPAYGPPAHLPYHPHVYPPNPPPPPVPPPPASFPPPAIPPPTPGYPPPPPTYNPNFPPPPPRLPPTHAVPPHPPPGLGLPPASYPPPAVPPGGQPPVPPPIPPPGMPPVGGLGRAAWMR

CN1CCN(Cc2ccc(Nc3ncc(Cl)c(Nc4ccccc4S(=O)(=O)N(C)C)n3)cc2)CC1 [TP-0903]
Inhibition (Wnk1, Wnk2, Wnk3): -14.9%
Inhibition (CHED): 14.4%
Inhibition (NEK6, NEK7): -9.6%
inhibition at 0.1 µM (MAP2K4; labeling site Activation Loop, peptide LCDFGISGQLVDSIAKTR): -0.165%
inhibition at 0.1 µM (MAP2K4; labeling site Lys1, peptide MVHKPSGQIMAVKR): 5.4%
inhibition at 0.1 µM (MAP2K4; labeling site Lys2, peptide DIKPSNILLDR): 3.5%
inhibition at 0.1 µM (DGKA): -41.6%
inhibition at 0.1 µM (IRAK1): 62.8%
Inhibition of AURKA/B/C, CDK6/7, BTK, and JAK1 [1]: moderate to strong inhibition
Survival prolonged compared with vehicle (MOLM13-Luc+ cells; 60 mg/kg 5 days a week): 13 days
Survival prolonged compared with vehicle (MOLM13-Luc+ cells; 60 mg/kg once daily continuously): 17 days
Leukemia outgrowth (bioluminescence) (MOLM13-Luc+ cells; 60 mg/kg): suppressed leukemia outgrowth
Kd (FGFR1): 0.021 µM
inhibition at 0.1 µM (PIK3C3; peptide TEDGGKYPVIFKHGDDLR): -16.8%
inhibition at 0.1 µM (PIK3C3; peptide TEDGGKYPVIFKHGDDLRQDQLILQIISLMDK): -18.2%
inhibition at 0.1 µM (CDK9; labeling site ATP Loop, peptide IGQGTFGEVFKAR): -30.7%
inhibition at 0.1 µM (CDK9; labeling site Lys2, peptide DMKAANVLITR): 32.9%
